In patent US10383859B2, “Benzo[d]thiazole derivative or salt thereof, and pharmaceutical composition including same” (Yuhan Corporation, priority 2016, dated 2019):

Tested on: A549 cells
Experiment: Cell migration assay (24-well transwell, laminin)
Format: cell-based, human
Conditions: Homo sapiens, A549, 6 h, laminin 10 μg/mL in lower well, test compounds 0.39˜100 μM, migrated cells counted, read-out: Inhibitory activity against cell migration
In short: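 Serum-free RPMI1640 transwell (8.0 μm pore) with laminin (10 μg/mL) in lower well; A549 cells (1×10^6 cells/mL) and compounds (0.39–100 μM) in both chambers, 6 h at 37 °C. Hematoxylin-stained cells on membrane underside counted at three fields (×20); IC50 by non-linear regression.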

| Structure (SMILES) | IC50 |
| --- | --- |
| COc1ccc(CCN(Cc2ccc(C(=O)O)cc2)c2nc3cc(C)ccc3s2)cc1 [Example 98, 4-({[2-(4-methoxyphenyl)ethyl](5-methyl-benzo[d]thiazol-2-yl)amino}methyl)benzoic acid] | > 10 µM |
| COc1ccc(CCN(c2nc3cc(F)cc(F)c3s2)C(C)c2ccc(C(=O)O)cc2)cc1 (centres unmarked) [Example 99, 4-(1-{(5,7-difluorobenzo[d]thiazol-2-yl)[2-(4-methoxyphenyl)ethyl]amino}ethyl)benzoic acid] | > 10 µM |
| COc1ccc(CCN(c2nc3cc(F)c(F)cc3s2)C(C)c2ccc(C(=O)O)cc2)cc1 (centres unmarked) [Example 100, 4-(1-{(5,6-difluorobenzo[d]thiazol-2-yl)[2-(4-methoxyphenyl)ethyl]amino}ethyl)benzoic acid] | > 10 µM |
| COc1ccc(CCN(c2nc3cc(F)c(F)c(F)c3s2)C(C)c2ccc(C(=O)O)cc2)cc1 (centres unmarked) [Example 101, 4-(1-{[2-(4-methoxyphenyl)ethyl](5,6,7-trifluorobenzo[d]thiazol-2-yl)amino}ethyl)benzoic acid] | > 10 µM |
| COc1ccc(CCN(c2nc3ccc(Cl)c(F)c3s2)C(C)c2ccc(C(=O)O)cc2)cc1 (centres unmarked) [Example 102, 4-(1-{(6-chloro-7-fluorobenzo[d]thiazol-2-yl)[2-(4-methoxyphenyl)ethyl]amino}ethyl)benzoic acid] | > 10 µM |
| COc1ccc(CCN(c2nc3cc(Br)ccc3s2)C(C)c2ccc(C(=O)O)cc2)cc1 (centres unmarked) [Example 103, 4-(1-{(5-bromo-benzo[d]thiazol-2-yl)[2-(4-methoxyphenyl)ethyl]amino}ethyl)benzoic acid] | > 10 µM |
| COc1ccc(CCN(c2nc3ccc(F)c(F)c3s2)C(C)c2ccc(C(=O)O)cc2)cc1 (centres unmarked) [Example 104, 4-(1-{(6,7-difluorobenzo[d]thiazol-2-yl)[2-(4-methoxyphenyl)ethyl]amino}ethyl)benzoic acid] | > 10 µM |
| COc1ccc(CCN(c2nc3ccc(C)c(F)c3s2)C(C)c2ccc(C(=O)O)cc2)cc1 (centres unmarked) [Example 105, 4-(1-{(7-fluoro-6-methyl-benzo[d]thiazol-2-yl)[2-(4-methoxyphenyl)ethyl]amino}ethyl)benzoic acid] | > 10 µM |
| COc1ccc(CCN(c2nc3cccc(C(F)(F)F)c3s2)C(C)c2ccc(C(=O)O)cc2)cc1 (centres unmarked) [Example 106, 4-(1-{[2-(4-methoxyphenyl)ethyl][7-(trifluoromethyl)-benzo[d]thiazol-2-yl]amino}ethyl)benzoic acid] | > 10 µM |
| COc1ccc(CCN(c2nc3cc(Cl)ccc3s2)C(C)c2ccc(C(=O)O)cc2)cc1 (centres unmarked) [Example 107, 4-(1-{(5-chloro-benzo[d]thiazol-2-yl)[2-(4-methoxyphenyl)ethyl]amino}ethyl)benzoic acid] | > 10 µM |
| COc1ccc(CCN(c2nc3ccc(Cl)cc3s2)C(C)c2ccc(C(=O)O)cc2)cc1 (centres unmarked) [Example 108, 4-(1-{(6-chloro-benzo[d]thiazol-2-yl)[2-(4-methoxyphenyl)ethyl]amino}ethyl)benzoic acid] | > 10 µM |
| COc1ccc(CCN(c2nc3cccc(Cl)c3s2)C(C)c2ccc(C(=O)O)cc2)cc1 (centres unmarked) [Example 109, 4-(1-{(7-chloro-benzo[d]thiazol-2-yl)[2-(4-methoxyphenyl)ethyl]amino}ethyl)benzoic acid] | < 1 µM |
| COc1ccc(CCN(c2nc3cccc(C)c3s2)C(C)c2ccc(C(=O)O)cc2)cc1 (centres unmarked) [Example 110, 4-(1-{[2-(4-methoxyphenyl)ethyl](7-methyl-benzo[d]thiazol-2-yl)amino}ethyl)benzoic acid] | > 10 µM |
| COc1ccc(CCN(c2nc3ccc(C)cc3s2)C(C)c2ccc(C(=O)O)cc2)cc1 (centres unmarked) [Example 111, 4-(1-{[2-(4-methoxyphenyl)ethyl](6-methyl-benzo[d]thiazol-2-yl)amino}ethyl)benzoic acid] | > 10 µM |
| COc1ccc(CCN(c2nc3cc(C)ccc3s2)C(C)c2ccc(C(=O)O)cc2)cc1 (centres unmarked) [Example 112, 4-(1-{[2-(4-methoxyphenyl)ethyl](5-methyl-benzo[d]thiazol-2-yl)amino}ethyl)benzoic acid] | > 10 µM |
| COc1ccc(CCN(c2nc3cc(F)ccc3s2)C(C)c2ccc(C(=O)O)cc2)cc1 (centres unmarked) [Example 113, 4-(1-{(5-fluorobenzo[d]thiazol-2-yl)[2-(4-methoxyphenyl)ethyl]amino}ethyl)benzoic acid] | > 10 µM |
| COc1ccc(CCN(c2nc3c(F)cc(F)cc3s2)C(C)c2ccc(C(=O)O)cc2)cc1 (centres unmarked) [Example 114, 4-(1-{(4,6-difluorobenzo[d]thiazol-2-yl)[2-(4-methoxyphenyl)ethyl]amino}ethyl)benzoic acid] | > 10 µM |
| COc1ccc(CCN(Cc2ccc(C(=O)O)cc2)c2nc3ccc(Br)cc3s2)cc1 [Example 115, 4-({(6-bromo-benzo[d]thiazol-2-yl)[2-(4-methoxyphenyl)ethyl]amino}methyl)benzoic acid] | > 10 µM |
| COc1ccc(CCN(c2nc3ccc(Br)cc3s2)C(C)c2ccc(C(=O)O)cc2)cc1 (centres unmarked) [Example 116, 4-(1-{(6-bromo-benzo[d]thiazol-2-yl)[2-(4-methoxyphenyl)ethyl]amino}ethyl)benzoic acid] | > 10 µM |
| COc1ccc(CCN(Cc2ccc(C(=O)O)cc2)c2nc3ccc(C(=O)O)cc3s2)cc1 [Example 117, 2-{(4-carboxybenzyl)[2-(4-methoxyphenyl)ethyl]amino}benzo[d]thiazole-6-carboxylic acid] | > 10 µM |
| COc1ccc(CCN(Cc2ccc(C(=O)O)cc2)c2nc3cccc(C(=O)O)c3s2)cc1 [Example 118, 2-{(4-carboxybenzyl)[2-(4-methoxyphenyl)ethyl]amino}benzo[d]thiazole-7-carboxylic acid] | > 10 µM |
| COc1ccc(CCN(Cc2ccc(C(=O)O)cc2)c2nc3ccc(C(F)(F)F)cc3s2)cc1 [Example 119, 4-({[2-(4-methoxyphenyl)ethyl][6-(trifluoromethyl)benzo[d]thiazol-2-yl]amino}methyl)benzoic acid] | > 10 µM |
| COc1ccc(CCN(Cc2ccc(C(=O)O)cc2)c2nc3cc(C(F)(F)F)ccc3s2)cc1 [Example 120, 4-({[2-(4-methoxyphenyl)ethyl][5-(trifluoromethyl)benzo[d]thiazol-2-yl]amino}methyl)benzoic acid] | < 1 µM |
| COc1ccc(CCN(Cc2ccc(C(=O)O)cc2)c2nc3ccc(C(F)(F)F)c(F)c3s2)cc1 [Example 121, 4-({[7-fluoro-6-(trifluoromethyl)benzo[d]thiazol-2-yl][2-(4-methoxyphenyl)ethyl]amino}methyl)benzoic acid] | > 10 µM |
| COc1ccc(CCN(c2nc3cc(F)cc(F)c3s2)C(C)c2ccc(C(=O)O)cc2)cc1F (centres unmarked) [Example 122, 4-(1-{(5,7-difluorobenzo[d]thiazol-2-yl)[2-(3-fluoro-4-methoxyphenyl)ethyl]amino}ethyl)benzoic acid] | < 1 µM |
| COc1ccc(CCN(c2nc3cc(C(F)(F)F)ccc3s2)C(C)c2ccc(C(=O)O)cc2)cc1 (centres unmarked) [Example 124, 4-(1-{[2-(4-methoxyphenyl)ethyl][5-(trifluoromethyl)benzo[d]thiazol-2-yl]amino}ethyl)benzoic acid] | < 1 µM |
